In brackets after ≈: the same amount, converted by molar mass.
Assays:
Strep dysgalaciae SPD1 = experiment: MIC, veterinary bacteria; format: cell-based; conditions: veterinary bacteria (Table 2), read-out: MIC
M fermentans MWKL4 [1] = experiment: MIC, anti-mycoplasmal, serial dilution in Friis' agar; format: cell-based; conditions: read-out: in vitro MIC, AGAR
M pulmonis JB [2] = experiment: MIC, anti-mycoplasmal, Friis' broth microtiter method; format: cell-based; conditions: read-out: in vitro MIC, BROTH
M alkalescens NCTC 10135 = experiment: MIC, anti-mycoplasmal, serial dilution in Friis' agar; format: cell-based; conditions: read-out: in vitro MIC, AGAR
[3] = test system: Erysipelothrix rhusiopathiae NCTC 8163; experiment: MIC, veterinary bacteria; format: cell-based; conditions: NCTC8163, veterinary bacteria (Table 2), read-out: MIC
M dispar NCTC 10125 = experiment: MIC, anti-mycoplasmal, Friis' broth microtiter method; format: cell-based; conditions: read-out: in vitro MIC, BROTH
M bovis NCTC 10131 = experiment: MIC, anti-mycoplasmal, serial dilution in Friis' agar; format: cell-based; conditions: read-out: in vitro MIC, AGAR
[4] = test system: Staph aureus 152 (pen sens); experiment: MIC, veterinary bacteria; format: cell-based; conditions: Staphylococcus aureus, veterinary bacteria (Table 2), read-out: MIC
[5] = test system: Strep suis (group D) SPS11; experiment: MIC, veterinary bacteria; format: cell-based; conditions: veterinary bacteria (Table 2), read-out: MIC
M synoviae ATCC 25204 = experiment: MIC, anti-mycoplasmal, serial dilution in Friis' agar; format: cell-based; conditions: read-out: in vitro MIC, AGAR
M gallisepticum S6 = experiment: as above; format: cell-based; conditions: read-out: in vitro MIC, AGAR
M bovis ATCC 25025 = experiment: as above; format: cell-based; conditions: read-out: in vitro MIC, AGAR
[6] = Serum binding by ultrafiltration; format: in vitro ADME, pig; conditions: pig, serum, compounds at 8 mcg/ml, microbiological assay (B. subtilis ATCC 6633), read-out: % bound to pig serum (converted)
Procedure: Serum binding was assessed by ultrafiltration of procine serum containing compounds at 8 mcg/ml, and through an Amicon CF50A ultrafiltration cone. Separation of ultrafiltrate was achieved by centrifugation.

E coli NCTC 10418 = experiment: MIC, veterinary bacteria; format: cell-based; conditions: veterinary bacteria (Table 2), read-out: MIC
S dublin S7 = experiment: MIC, veterinary bacteria; format: cell-based; conditions: veterinary bacteria (Table 2), read-out: MIC
S typhimurium S18 = experiment: MIC, veterinary bacteria; format: cell-based; conditions: veterinary bacteria (Table 2), read-out: MIC
[7] = test system: M suipneumoniae J2206/183b; experiment: MIC, anti-mycoplasmal, Friis' broth microtiter method; format: cell-based; conditions: read-out: in vitro MIC, BROTH
[8] = test system: Staph aureus B4 (pen resis); experiment: MIC, veterinary bacteria; format: cell-based; conditions: Staphylococcus aureus, veterinary bacteria (Table 2), read-out: MIC
Strep uberis SPU1 = experiment: MIC, veterinary bacteria; format: cell-based; conditions: veterinary bacteria (Table 2), read-out: MIC
Past multocida PA1 = experiment: MIC, veterinary bacteria; format: cell-based; conditions: veterinary bacteria (Table 2), read-out: MIC
M fermentans MWKL4 [9] = experiment: MIC, anti-mycoplasmal, Friis' broth microtiter method; format: cell-based; conditions: read-out: in vitro MIC, BROTH
Bord bronchisptica BO9 = experiment: MIC, veterinary bacteria; format: cell-based; conditions: veterinary bacteria (Table 2), read-out: MIC
M hyorhinis ATCC 23234 = experiment: MIC, anti-mycoplasmal, serial dilution in Friis' agar; format: cell-based; conditions: read-out: in vitro MIC, AGAR
M pneumoniae ATCC 15492 [10] = experiment: MIC, anti-mycoplasmal, Friis' broth microtiter method; format: cell-based; conditions: read-out: in vitro MIC, BROTH
M pneumoniae 427a [11] = experiment: as above; format: cell-based; conditions: read-out: in vitro MIC, BROTH
[12] = test system: M bovigenitalium ATCC 14173; experiment: MIC, anti-mycoplasmal, serial dilution in Friis' agar; format: cell-based; conditions: read-out: in vitro MIC, AGAR
M pulmonis JB [13] = experiment: as above; format: cell-based; conditions: read-out: in vitro MIC, AGAR
Past multocida PA2 = experiment: MIC, veterinary bacteria; format: cell-based; conditions: veterinary bacteria (Table 2), read-out: MIC
E coli E1 = experiment: MIC, veterinary bacteria; format: cell-based; conditions: veterinary bacteria (Table 2), read-out: MIC
M dispar H225 = experiment: MIC, anti-mycoplasmal, Friis' broth microtiter method; format: cell-based; conditions: read-out: in vitro MIC, BROTH
M pneumoniae ATCC 15492 [14] = experiment: MIC, anti-mycoplasmal, serial dilution in Friis' agar; format: cell-based; conditions: read-out: in vitro MIC, AGAR
M arthritidis ATCC 14124 = experiment: as above; format: cell-based; conditions: read-out: in vitro MIC, AGAR
M suipneumoniae Str 11 = experiment: MIC, anti-mycoplasmal, Friis' broth microtiter method; format: cell-based; conditions: read-out: in vitro MIC, BROTH
M pneumoniae 427a [15] = experiment: MIC, anti-mycoplasmal, serial dilution in Friis' agar; format: cell-based; conditions: read-out: in vitro MIC, AGAR
Bord bronchiseptica BO8 = experiment: MIC, veterinary bacteria; format: cell-based; conditions: veterinary bacteria (Table 2), read-out: MIC
Past Haemolytica PA5 = experiment: MIC, veterinary bacteria; format: cell-based; conditions: veterinary bacteria (Table 2), read-out: MIC
M hyosynoviae ATCC 25591 = experiment: MIC, anti-mycoplasmal, serial dilution in Friis' agar; format: cell-based; conditions: read-out: in vitro MIC, AGAR
Strep agalactiae SPA1 = experiment: MIC, veterinary bacteria; format: cell-based; conditions: veterinary bacteria (Table 2), read-out: MIC
Staph aureus Oxford = experiment: MIC, veterinary bacteria; format: cell-based; conditions: Staphylococcus aureus, veterinary bacteria (Table 2), read-out: MIC

Compound: CC(=O)CCCOC(=O)C=C(C)CC1OCC(CC2OC2C(C)C(C)O)C(O)C1O (stereo not drawn) [Example 2, 3-Acetvlpropvl Monate A]
- MIC (Strep dysgalaciae SPD1): 1.25 µg/mL (≈ 2.92 µM)
- MIC (M fermentans MWKL4 [1]): ≤ 0.02 µg/mL
- MIC (M pulmonis JB [2]): < 0.02 µg/mL
- MIC (M alkalescens NCTC 10135): < 0.02 µg/mL
- MIC [3]: 80 µg/mL (≈ 187 µM)
- MIC (M dispar NCTC 10125): ≤ 0.02 µg/mL
- MIC (M bovis NCTC 10131): < 0.02 µg/mL
- MIC [4]: 1.25 µg/mL (≈ 2.92 µM)
- MIC [5]: 10 µg/mL (≈ 23.3 µM)
- MIC (M synoviae ATCC 25204): < 0.02 µg/mL
- MIC (M gallisepticum S6): 2.5 µg/mL (≈ 5.83 µM)
- MIC (M bovis ATCC 25025): < 0.02 µg/mL
- fraction unbound [6]: 0.76
- MIC (E coli NCTC 10418): > 80 µg/mL
- MIC (S dublin S7): > 80 µg/mL
- MIC (S typhimurium S18): > 80 µg/mL
- MIC [7]: 0.312 µg/mL (≈ 0.728 µM)
- MIC [8]: 1.25 µg/mL (≈ 2.92 µM)
- MIC (Strep uberis SPU1): 0.312 µg/mL (≈ 0.728 µM)
- MIC (Past multocida PA1): 0.312 µg/mL (≈ 0.728 µM)
- MIC (M fermentans MWKL4 [9]): < 0.02 µg/mL
- MIC (Bord bronchisptica BO9): 5 µg/mL (≈ 11.7 µM)
- MIC (M hyorhinis ATCC 23234): 0.312 µg/mL (≈ 0.728 µM)
- MIC (M pneumoniae ATCC 15492 [10]): 0.312 µg/mL (≈ 0.728 µM)
- MIC (M pneumoniae 427a [11]): 0.625 µg/mL (≈ 1.46 µM)
- MIC [12]: ≤ 0.02 µg/mL
- MIC (M pulmonis JB [13]): ≤ 0.02 µg/mL
- MIC (Past multocida PA2): 0.039 µg/mL (≈ 0.091 µM)
- MIC (E coli E1): > 80 µg/mL
- MIC (M dispar H225): ≤ 0.02 µg/mL
- MIC (M pneumoniae ATCC 15492 [14]): 0.312 µg/mL (≈ 0.728 µM)
- MIC (M arthritidis ATCC 14124): 2.5 µg/mL (≈ 5.83 µM)
- MIC (M suipneumoniae Str 11): 0.156 µg/mL (≈ 0.364 µM)
- MIC (M pneumoniae 427a [15]): 0.312 µg/mL (≈ 0.728 µM)
- MIC (Bord bronchiseptica BO8): 40 µg/mL (≈ 93.3 µM)
- MIC (Past Haemolytica PA5): 5 µg/mL (≈ 11.7 µM)
- MIC (M hyosynoviae ATCC 25591): 0.078 µg/mL (≈ 0.182 µM)
- MIC (Strep agalactiae SPA1): 2.5 µg/mL (≈ 5.83 µM)
- MIC (Staph aureus Oxford): 1.25 µg/mL (≈ 2.92 µM)

— patent EP0025288A1, “Derivatives of monic acid, processes for their preparation, compositions containing them and their preparation” (priority 1979, dated 1981)
